Values of other authors, collected in publication PMC3986712, “Diclofenac Salts. V. Examples of Polymorphism among Diclofenac Salts with Alkyl-hydroxy Amines Studied by DSC and HSM” (Pharmaceutics, 2010).

Settings: free base (counterion), no reference given

pKa: 7.76
SMILES: NC(CO)(CO)CO [TRIS base, Tris-methylol aminomethane]
